“Also recorded” adds a separate entry of the source. Where a SMILES comes first, the peptide text is derived from it. Bridges are numbered along the chain shown (N, C = ends). Roman numbers before positions name the chains, in order. Where no end group is shown, it is not given here. [ ]: non-standard residue; d: D form.
What was measured:
[1] = cited from earlier work; for antipyretic potency relative to α-MSH (11-13): centrally administered, rabbit, Deeter et al. 1989
[2] = in vivo
[3] = in vivo; remark: listed apart in the source
[4] = tested on: C. albicans (clinical isolate); test: C. albicans viability by colony forming units; type: cell-based, Candida albicans; conditions: 10^−6 M
Procedure: C. albicans (clinical isolate) were obtained from the collection of the Department of Microbiology, Ospedale Maggiore di Milano. C. albicans were maintained on Sabouraud's agar slants and periodically transferred to Sabouraud's agar plates and incubated for 48 hours at 28° C. To prepare stationary growth phase yeast, a colony was taken from the agar plate and transferred into 30 ml Sabouraud-dextrose broth and incubated for 72 hours at 32° C. Cells were centrifuged at 100×g for 10 minutes and the pellet was washed twice with distilled water. Cells were counted and suspended in Hank's balanced salt solution (“HBSS”) to the desired concentration. […] C. albicans (I×10^6/ml in HBSS) was incubated in the presence or absence of α-MSH [1-13], KPV, (SEQ. ID NO.1) or the (“KPV dimer”) at concentrations in the range of 10^−15 to 10^−4M for 2 hours at 37° C. Cells were then washed in cold distilled water and diluted with HBSS to a concentration of 100 organisms/ml. One ml aliquots were dispensed on blood agar plates and incubated for 48 hours at 37° C. Organism viability was estimated from the number of colonies formed.
Fluconazole is a well established antifungal agent. […] The peptides and fluconazole were tested in concentrations of 10^−6 M. There were at least six replicates for each concentration of peptide.

HIV transcription = conditions: 10^−5M; PMA (1 ng/mL) stimulated UI cells, 24 h
Excerpt: Total RNA was extracted by the guanidine thiocyanate phenol method using an RNA isolation kit (Tripure, Boehringer Mannheim, Indianapolis, Ind.), following the manufacturer's instructions. Ten ng of total RNA were separated by 0.8% agarose/formaldehyde gel electrophoresis and transferred onto nylon membrane. The filters were baked and hybridized for 18 hr with ^32P-labeled HIV-full length probe (kind gift of L. Turchetto and E. Vicenzi, S. Raffaele Hospital, Milan, Italy). The radiolabeling reaction was performed using a DNA labeling kit (Ready-to-go, Pharmacia Biotech, San Francisco, Calif.). Filters were washed and exposed to X-ray film for 5 days. The labeled probe was removed by washing at 80° C. in 0.1×SSC containing 0.1% sodium dodecyl sulphate and then rehybridized with (^32P-labeled glyceraldehyde-3-phosphate dehydrogenase) (GAPDH) cDNA probe. Densitometric analysis was performed using ImageMaster VDS 3.0 software (Pharmacia Biotech) and results were expressed as density units.

S. aureus = test: Urokinase-induced growth enhancement of S. aureus; type: cell-based, Staphylococcus aureus; conditions: 10^−6 M, recombinant human urokinase 500 U, four hours at 37° C.
Procedure: In this experiment, the influence of α-MSH on urokinase-induced growth-enhancement is determined. […] (SEQ. ID NO.1) at 10^−6 M. Appropriate dilutions of S. aureus were dispensed on agar plates and colonies counted after 24 hours incubation at 37° C.

[5] = tested on: Enterococcus faecalis (MDR) (ATCC 51299); test: Broth dilution turbidity test of growth inhibition; type: cell-based
Procedure: (§1) These organisms were subcultured onto blood agar plates and incubated for 16-24 hours at 35±2° C. An inoculated needle or loop was touched to each of four or five well isolated colonies of the same morphological type, and the inoculum inoculated into 5 mL of MHB.
(§2) The broth cultures were then allowed to incubate at 35±2° C. until turbidity appeared (usually 2 to 5 hours). […] This turbidity is half the density of a McFarland number one standard and is often referred to as McFarland 0.5 standard (approx. 1.5×10^8 CFU/mL). This turbidity standard was agitated on a vortex mixer immediately before use. Sealed tubes were stored in the dark at room temperature and replaced if the inocula are shown (by count) to be aberrant.
(§3) The broth culture was further diluted to 1:200 in MHB broth (to obtain a final concentration of 10^5 to 10^6 CFU/mL). To determine the initial concentration of the organism in the above solution, serial dilutions were performed 1:10 in MHB four times to achieve a final dilution of 10^−4. Aliquots 1.0 mL from each of the dilutions were placed in duplicate into sterile petri dishes. Approximately 15 to 20 mL of tempered (45±2° C.) MCTA agar media was added. The plates were incubated overnight at 35±2° C. for 16-20 hours. Following the incubation period, the colonies were counted.
(§4) These dilutions were developed according to the procedure: for each drug substance label 9 flasks (10 ml Volumetric) 1 through 9; for each sample add 3 mL of deionized (“DI”) water to a 10 mL volumetric flask; then transfer the amount of anti-microbial and anti-inflammatory peptides as specified below in Table 2; record the actual amount transferred in the laboratory notebook; and add the remaining amount of DI water to bring up to volume of 10 mL.
(§5) 100 μL of the anti-microbial and anti-inflammatory peptide solution from each of the flasks was then added to the correspondingly labeled well; to well number 10 add 100 μL sterile DI Water; and to all ten wells add 100 μL of inoculum created previously.
(§6) The procedure was repeated for each of the seven microorganisms tested.
(§7) Each well was tested for turbidity, as an indicator of growth.

[6] = tested on: Streptococcus pyogenes Group A (ATCC 19615); test: Broth dilution turbidity test of growth inhibition; type: cell-based
Procedure: as §1, §2, §3, §4, §5, §6, §7

[7] = tested on: Staphylococcus aureus (ATCC29213); test: S. aureus viability by colony forming units; type: cell-based; conditions: 10^−15 to 10^−4M, 2 hours at 37° C.
Procedure: Staphylococcus aureus (ATCC29213) was obtained from the collection of the Department of Microbiology, Ospedale Maggiore di Milano. S. aureus (1×10^6/ml in HBSS) was incubated in the presence or absence of α-MSH [1-13] (SEQ ID NO: 6), α-MSH [11-13] (SEQ. ID NO. 1) or the KPV dimer (SEQ ID NO: 4) at concentrations in the range of 10^−15 to 10^−4M for 2 hours at 37° C. S. aureus were then washed in cold distilled water and diluted with HBSS to a concentration of 100 organisms/ml. One ml aliquots were dispensed on blood agar plates and incubated for 24 hours at 37° C. Organism viability was estimated from the number of colony forming units.

[8] = tested on: HIV-1 infected promonocytic UI cell line; test: HIV-p24 release from TNF-α stimulated UI cells (ELISA); type: cell-based; conditions: 48 hr
[9] = tested on: Staphylococcus epidermidis (ATCC 12228); test: Broth dilution turbidity test of growth inhibition; type: cell-based
Procedure: The following microorganisms were used in the Example: Candida albicans (ATCC 10231); Enterococcus faecalis (MDR) (ATCC 51299); Escherichia coli (ATCC 11229); Pseudomonas aeruginosa (ATCC 9027); Staphylococcus aureus (ATCC 6538); Staphylococcus epidermidis (ATCC 12228); and Streptococcus pyogenes Group A (ATCC 19615). These organisms were subcultured onto blood agar plates and incubated for 16-24 hours at 35±2° C. An inoculated needle or loop was touched to each of four or five well isolated colonies of the same morphological type, and the inoculum inoculated into 5 mL of MHB.
as §2
The broth culture was further diluted to 1:200 in MHB broth (to obtain a final concentration of 10^5 to 10^6 CFU/mL). To determine the initial concentration of the organism in the above solution, serial dilutions were performed 1:10 in MHB four times to achieve a final dilution of 10^−4. […] Following the incubation period, the colonies were counted. […]

[10] = tested on: Candida albicans (ATCC 10231); test: Broth dilution turbidity test of growth inhibition; type: cell-based; conditions: turbidity after 16-20 hours at 35±2° C.
Procedure: as §1, §2, §3, §4, §5, §6, §7

[11] = Hiltz et al. 1991; cited from earlier work
[12] = turbidity after 16-20 hours at 35±2° C.

8-13 sequence: α-MSH fragment 8-13 (RWGKPV; ends and bridges not checked; UniProt P01189 145-150, looked up, fragment)
antipyretic potency relative to α-MSH (11-13) [1]: greater than that of the 11-13 sequence

9-13 sequence: α-MSH fragment 9-13 (WGKPV; ends and bridges not checked; UniProt P01189 146-150, looked up, fragment)
antipyretic potency relative to α-MSH (11-13) [1]: almost devoid of activity

10-13 sequence: α-MSH fragment formed by addition of glycine to α-MSH (11-13) (GKPV; ends and bridges not checked; UniProt P01189 147-150, looked up, fragment)
antipyretic potency relative to α-MSH (11-13) [1]: slightly decreased potency

CC(=O)N[C@@H](CSSC[C@H](NC(C)=O)C(=O)N[C@@H](CCCCN)C(=O)N1CCC[C@H]1C(=O)N[C@H](C(N)=O)C(C)C)C(=O)N[C@@H](CCCCN)C(=O)N1CCC[C@H]1C(=O)N[C@H](C(N)=O)C(C)C [KPV dimer, Val-Pro-Lys-AcCys-s-s-CysAc-Lys-Pro-Val] (I: Ac-CKPV-NH2 / II: Ac-CKPV-NH2; disulfide I:1-II:1)
safety and tolerability [2]: remarkable safety of and tolerability | negative side effects [3]: without negative side effects

ACTH (1-39): adrenocorticotropic hormone (SYSMEHFRWGKPVGKKRRPVKVYPAKEDDEASEAFPLEF; listed as Homo sapiens) [reference compound]
reduction of C. albicans viability in comparison with fluconazole [4]: did not reduce C. albicans viability

ACTH fragment (18-39): ACTH fragment (18-39) (PVKVYPAKEDDEASEAFPLEF; listed as Homo sapiens) [reference compound]
reduction of C. albicans viability in comparison with fluconazole [4]: did not reduce C. albicans viability

HFRWGKPV (listed as Homo sapiens) [α-MSH [6-13]]
reduction of C. albicans viability in comparison with fluconazole [4]: most effective

Lysine-Proline-Valine [KPV]
reduction of spliced and unspliced HIV-1 RNA (HIV transcription): approximately 50% | urokinase-enhanced S. aureus colony formation (S. aureus): significantly inhibited the enhancing effect of urokinase; also recorded: significantly inhibited this urokinase-enhancing effect | reduction of C. albicans viability in comparison with fluconazole [4]: most effective | effectiveness against the organism (in words) [5]: effective | effectiveness against the organism (in words) [6]: effective | S. aureus colony formation (CFU) [7]: inhibited S. aureus colony formation

Met-Glu-His-Phe-Arg-Trp-Gly (EHFRWG; listed as Homo sapiens) [α-MSH [4-10], reference compound]
inhibition of C. albicans CFU [4]: approximately 50%

SYSMEHFRWGKPV [α-MSH [1-13]]
inhibition of p24 release ([8]; 10^−5 M, TNF-α (10 ng/mL) stimulated UI cells): 52.7% | p24 release from TNF-α stimulated UI cells (in words) ([8]; 10^−13 to 10^−4 M): significantly inhibited p24 release | urokinase-enhanced S. aureus colony formation (S. aureus): significantly inhibited this urokinase-enhancing effect | urokinase-enhanced S. aureus colony formation (S. aureus; listed as α-MSH): significantly inhibited the enhancing effect of urokinase | reduction of C. albicans viability in comparison with fluconazole [4]: most effective | S. aureus colony formation (CFU) [7]: inhibited S. aureus colony formation

SYSMEHdFRWGKPV (SYSMEH[dF]RWGKPV; ends and bridges not checked) [Phe7]
effectiveness against the organism (in words) [9]: very effective | minimal effective concentration that completely inhibited growth [9, 12]: 10^−4 M | effectiveness against the organism (in words) [5]: effective | minimal effective concentration that completely inhibited growth [5, 12]: 10^−3 M | minimal effective concentration that completely inhibited growth [10]: 10^−3 M | effectiveness against the organism (in words) [6]: effective | minimal effective concentration that completely inhibited growth [6, 12]: 10^−4 M

[Nle4 dPhe7]α-MSH [NDP]
potency in reducing fever relative to the parent peptide ([1]; Holdeman and Lipton 1985): approximately ten times more potent than the parent peptide | minimal effective concentration that completely inhibited growth [10]: 10^−3 M

[dK11] α-MSH (11-13)
anti-inflammatory potency relative to L-form tripeptide α-MSH 11-13 [11]: same general potency as the L-form

Reference: US20050074485A1, “Anti-inflammatory/anti-microbial peptides for use in dialysis” (priority 2003, published 2005)
